Measurements from ChEMBL document CHEMBL4020739, “Investigation of the structural requirements of K-Ras(G12D) selective inhibitory peptide KRpep-2d using alanine scans and cysteine bridging” (Bioorg Med Chem Lett, 2017).
Peptide text beside a SMILES is read from it.

Columns and labels:
Homo sapiens [1] = organism: Homo sapiens; assay: Selectivity ratio of IC50 for inhibition of biotinylated K-Ras G12C mutant (unknown origin) to IC50 for inhibition of biotinylated K-Ras G12D mutant (unknown origin)
GTPase KRas [2] = target: T1, GTPase KRas (Homo sapiens, UniProt P01116, G12D); assay: Inhibition of biotinylated K-Ras G12D mutant (unknown origin) assessed as reduction in SOS1 (564 to 1049 residues)-mediated BODIPY-GDP-GTP exchange after 1 hr by TR-FRET assay
GTPase KRas [3] = target: GTPase KRas (Homo sapiens, UniProt P01116); assay: Inhibition of biotinylated wild-type K-Ras (unknown origin) assessed as inhibition of human SOS1 (564 to 1049 residues)-mediated BODIPY-GDP-GTP exchange after 1 hr by TR-FRET assay
GTPase KRas [4] = target: GTPase KRas (Homo sapiens, UniProt P01116, G12C); assay: Inhibition of biotinylated K-Ras G12C mutant (unknown origin) assessed as reduction in SOS1 (564 to 1049 residues)-mediated BODIPY-GDP-GTP exchange after 1 hr by TR-FRET assay
GTPase KRas [5] = target: T1, GTPase KRas; assay: Inhibition of biotinylated K-Ras G12D mutant (unknown origin) assessed as reduction in SOS1 (564 to 1049 residues)-mediated BODIPY-GDP-GTP exchange after 1 hr in presence of DTT by TR-FRET assay
Homo sapiens [6] = organism: Homo sapiens; assay: Selectivity ratio of IC50 for inhibition of biotinylated wild type K-Ras (unknown origin) to IC50 for inhibition of biotinylated K-Ras G12D mutant (unknown origin)

Row | Structure (SMILES) | Ratio IC50 (Homo sapiens [1]) | IC50 (GTPase KRas [2]) [nM] | IC50 (GTPase KRas [3]) [nM] | IC50 (GTPase KRas [4]) [nM] | IC50 (GTPase KRas [5]) [nM] | Ratio IC50 (Homo sapiens [6])
1 | CC[C@H](C)[C@@H]1NC(=O)[C@H](Cc2ccc(O)cc2)NC(=O)[C@H](CC(C)C)NC(=O)[C@@H]2CCCN2C(=O)[C@@H](NC(=O)[C@H](CCCNC(=N)N)NC(=O)[C@H](CCCNC(=N)N)NC(=O)[C@H](CCCNC(=N)N)NC(=O)[C@H](CCCNC(=N)N)NC(C)=O)CSSC[C@@H](C(=O)N[C@@H](CCCNC(=N)N)C(=O)N[C@@H](CCCNC(=N)N)C(=O)N[C@@H](CCCNC(=N)N)C(=O)N[C@@H](CCCNC(=N)N)C(N)=O)NC(=O)[C@H](C(C)C)NC(=O)[C@@H]2CCCN2C(=O)[C@H](CC(=O)O)NC(=O)[C@H](Cc2ccc(O)cc2)NC(=O)[C@H](C)NC1=O (HELM PEPTIDE1{[ac].R.R.R.R.C.P.L.Y.I.A.Y.D.P.V.C.R.R.R.R.[am]}$PEPTIDE1,PEPTIDE1,6:R3-16:R3$$$V2.0) | 6 | 6.3 | 764 | 36 | 22 | 121
2 | CC[C@H](C)[C@@H]1NC(=O)[C@H](Cc2ccc(O)cc2)NC(=O)[C@H](CC(C)C)NC(=O)[C@@H]2CCCN2C(=O)[C@@H](NC(=O)[C@H](CCCNC(=N)N)NC(=O)[C@H](CCCNC(=N)N)NC(=O)[C@H](CCCNC(=N)N)NC(=O)[C@H](CCCNC(=N)N)NC(C)=O)CSSC[C@@H](C(=O)N[C@@H](CCCNC(=N)N)C(=O)N[C@@H](CCCNC(=N)N)C(=O)N[C@@H](CCCNC(=N)N)C(=O)N[C@@H](CCCNC(=N)N)C(N)=O)NC(=O)[C@H](C(C)C)NC(=O)[C@@H]2CCCN2C(=O)[C@H](CC(=O)O)NC(=O)[C@H](C)NC(=O)[C@H](CO)NC1=O (HELM PEPTIDE1{[ac].R.R.R.R.C.P.L.Y.I.S.A.D.P.V.C.R.R.R.R.[am]}$PEPTIDE1,PEPTIDE1,6:R3-16:R3$$$V2.0) | 6 | 64 | 4190 | 358 | 244 | 65
3 | CC[C@H](C)[C@@H]1NC(=O)[C@H](Cc2ccc(O)cc2)NC(=O)[C@H](CC(C)C)NC(=O)[C@@H]2CCCN2C(=O)[C@@H](NC(=O)[C@H](CCCNC(=N)N)NC(=O)[C@H](CCCNC(=N)N)NC(=O)[C@H](CCCNC(=N)N)NC(=O)[C@H](CCCNC(=N)N)NC(C)=O)CSSC[C@@H](C(=O)N[C@@H](CCCNC(=N)N)C(=O)N[C@@H](CCCNC(=N)N)C(=O)N[C@@H](CCCNC(=N)N)C(=O)N[C@@H](CCCNC(=N)N)C(N)=O)NC(=O)[C@H](C(C)C)NC(=O)[C@@H]2CCCN2C(=O)[C@H](C)NC(=O)[C@H](Cc2ccc(O)cc2)NC(=O)[C@H](CO)NC1=O (HELM PEPTIDE1{[ac].R.R.R.R.C.P.L.Y.I.S.Y.A.P.V.C.R.R.R.R.[am]}$PEPTIDE1,PEPTIDE1,6:R3-16:R3$$$V2.0) | 0.06 | 15400 | 65000 | 975 | > 100000 | 4
4 | CC[C@H](C)[C@@H]1NC(=O)[C@H](Cc2ccc(O)cc2)NC(=O)[C@H](CC(C)C)NC(=O)[C@@H]2CCCN2C(=O)[C@@H](NC(=O)[C@H](CCCNC(=N)N)NC(=O)[C@H](CCCNC(=N)N)NC(=O)[C@H](CCCNC(=N)N)NC(=O)[C@H](CCCNC(=N)N)NC(C)=O)CSSC[C@@H](C(=O)N[C@@H](CCCNC(=N)N)C(=O)N[C@@H](CCCNC(=N)N)C(=O)N[C@@H](CCCNC(=N)N)C(=O)N[C@@H](CCCNC(=N)N)C(N)=O)NC(=O)[C@H](C(C)C)NC(=O)[C@H](C)NC(=O)[C@H](CC(=O)O)NC(=O)[C@H](Cc2ccc(O)cc2)NC(=O)[C@H](CO)NC1=O (HELM PEPTIDE1{[ac].R.R.R.R.C.P.L.Y.I.S.Y.D.A.V.C.R.R.R.R.[am]}$PEPTIDE1,PEPTIDE1,6:R3-16:R3$$$V2.0) | 4 | 2.7 | 216 | 12 | 7.4 | 80
5 | CC[C@H](C)[C@@H]1NC(=O)[C@H](Cc2ccc(O)cc2)NC(=O)[C@H](CC(C)C)NC(=O)[C@@H]2CCCN2C(=O)[C@@H](NC(=O)[C@H](CCCNC(=N)N)NC(=O)[C@H](CCCNC(=N)N)NC(=O)[C@H](CCCNC(=N)N)NC(=O)[C@H](CCCNC(=N)N)NC(C)=O)CSSC[C@@H](C(=O)N[C@@H](CCCNC(=N)N)C(=O)N[C@@H](CCCNC(=N)N)C(=O)N[C@@H](CCCNC(=N)N)C(=O)N[C@@H](CCCNC(=N)N)C(N)=O)NC(=O)[C@H](C)NC(=O)[C@@H]2CCCN2C(=O)[C@H](CC(=O)O)NC(=O)[C@H](Cc2ccc(O)cc2)NC(=O)[C@H](CO)NC1=O (HELM PEPTIDE1{[ac].R.R.R.R.C.P.L.Y.I.S.Y.D.P.A.C.R.R.R.R.[am]}$PEPTIDE1,PEPTIDE1,6:R3-16:R3$$$V2.0) | 6 | 7.5 | 105 | 44 | 35.8 | 14
